Measured values: patent US20100003711A1, “Methods to identify therapeutic agents” (THE SCRIPPS RESEARCH INSTITUTE, priority 2005, published 2010)

Key:
CD36 = test: Scavenger receptor expression by flow cytometry, CD36; type: cell-based, murine
Experimental: (§1) Cell surface CD36 and SR-A were measured by flow cytometry using CD36 (BD Biosciences Pharmingen, San Diego, Calif.) and CD204 (Serotec, Oxford, UK) specific monoclonal antibodies. See Liao et al. (2000) Arterioscler. Thromb. Vasc. Biol. 20: 1968-75; Hu et al. (1996) Blood 87: 2020-28. Murine macrophage J774A.1 cells were serum-starved overnight in media with 0.5% BSA. Cells (1×10^6) treated with cholesterol ozonation products or cholesterol ozonation product complexed with LDL for specified times were then washed twice with PBS. After harvesting the cells by scraping, they were fixed with 6% paraformaldehyde for 20 min; Cells were then resuspended in PBS containing 2% heat-inactivated FCS, 0.05% NaN3 and appropriate primary antibody, antibody conjugate or isotype control (1:100 dilution) and incubated on ice for 30 min. Expression of either CD36 or SR-A was determined with CD36 (BD Biosciences Pharmingen, San Diego, Calif.) and CD204 (Serotec, Oxford, U.K.) specific monoclonal antibodies, respectively. After washing off the primary antibody, secondary antibodies were added, cells were washed again, then analyzed on a FACS calibur 2 (Becton Dickinson, Sparks, Md.) flow cytometer and analyzed by CellQuant software. Results were expressed as mean fluorescence intensity±standard error of the mean (SEM) of at least duplicate determinations. Significance was determined using a student two-tail t test, with (*) indicating p<0.05, and (**) indicating p<0.01 versus the control.

[1] = Aldolization of ketoaldehyde 4a with amino acids (1H NMR); type: physicochemical; details: DMSO-d6 (800 μl) and D2O (80 μl) without amino acid
Experimental: Aldolization of ketoaldehyde 4a with amino acids. […] To this solution was added 1 equivalent of either: a) L-proline, b) glycine, c) L-lysine hydrochloride or d) L-lysine ethyl ester dihydrochloride. At time points the samples were analyzed by ^1H NMR.

[2] = system: murine macrophage J774A.1; test: Modified Boyden chamber migration (chemotaxis) assay; type: cell-based
Experimental: Chemotaxis and invasion assays were performed using a modified Boyden chamber migration assay. Zwirner et al. (1998) Eur. J. Immunol. 28: 1570-77; Wilkinson (1988) Methods Enzymol. 162: 38-50. Assays were set up on MultiScreen-MIC plates (Millipore, Billerica, Mass., USA) with polyvinylpyrrolidone-free polycarbonate membranes (5 μm pore size). Cells (murine macrophage J774A.1) were washed and resuspended in serum-free DMEM containing 0.2% BSA at 1×10^6 cells/ml. Fifty microliters of cells were added to the upper wells and 150 μl of chemoattractant in DMEM/0.2% BSA were added to the lower wells of the microchamber. Incubation time was for 4 h at 37° C. in an 8% CO2 atmosphere. After swiping cells off the upper side of the membrane, cells on the lower side were visualized by either staining and phase contrast microscopy, or fluorescence. Cells that had adhered to the membrane were stained using a DiffQuik staining kit (Dade Behring, Newark, Del.). Each experiment was performed in triplicate and the numbers of migrating cells were counted in five fields at ×200. Cells harvested with PBS-EDTA for fluorescent labeling were washed two times with PBS, then resuspended in serum-free medium containing calcein AM (5 μM). Cells were incubated for 30 min (37° C., 5% CO2) with gentle intermittent mixing. Calcein-labeled cells were washed twice, and calcein fluorescence ([…]) was measured using a SPECTRAmax™ GEMINI dual-scanning microplate spectrofluorometer. Fluorescence measurements were compared to a standard curve, generated by dilution of cells in PBS/BSA in 100 μl, dispensed into 96-well plates. Fluorescence was quantified as described above.

[3] = system: Class A scavenger receptor (SR-A); test: Scavenger receptor expression by flow cytometry, SR-A; type: cell-based, murine; details: cultured macrophages, compound in the absence of LDL
Experimental: as §1, with “After harvesting the cells by scraping, they were fixed with 6% paraformaldehyde for 20 min; Cells were then resuspended in PBS containing 2% heat-inactivated FCS, 0.05% NaN3 and appropriate primary antibody, antibody conjugate or isotype control (1:100 dilution) and incubated on ice for 30 min.” left out

U-937 monocytes cells = test: Monocyte adhesion to endothelial cell monolayers by fluorescence spectroscopy; type: cell-based; details: alone or in complex with LDL
THP-1 monocytes = test: Monocyte morphology changes (differentiation into macrophages); type: cell-based, human; details: 12.5 or 25 μM, up to 7 days
Experimental: THP-1 monocytes in suspension were plated in 8-well chambered slides. […] Media containing appropriate treatment compounds was replaced after 4 days. After 4 days treatment, morphologic changes of the adherent cells were assessed by phase-contrast microscopy and photographed using an Olympus Microfire digital camera.

neuronal cell lines = test: Cytotoxicity towards neuronal cell lines (similar procedures); type: cell-based
VCAM-1 (CD106) = test: Endothelial adhesion molecule expression by ELISA, VCAM-1; type: cell-based, human
Experimental: Endothelial cell surface adhesion molecule expression was measured by ELISA, using anti-human CD54 (ICAM-1), CD106 (VCAM-1) and CD62E (E-Selectin) antibodies (Leinco Technologies, Inc., St. Louis, Mo.). The ELISA method was modified from previously described procedures.
Cells were then incubated with antibodies to VCAM-1, E-selectin, or ICAM-1 diluted 1:400 in PBS containing 5% FCS at 37° C. for 30 min. Wells were washed two times with PBS, then incubated with horseradish peroxidase (HRP)-conjugated goat anti-mouse IgG (Southern Biotechnology Associates, Birmingham, Ala., USA) in PBS/5% FCS at 37° C. for 30 min. The wells were washed four times with PBS, then incubated with H2O2/3,3′,5,5′-tetramethyl-benzidine peroxidase substrate (Pierce Chemical, Rockford, Ill., USA) for 30 min in the dark. The reaction was stopped by adding 25 μl of 8 N H2SO4, and the plates read on a microplate reader, blanking on wells stained with only secondary antibody. Each assay was performed in triplicate and the data are reported as the mean±SEM as a percentage of the expression level of the vehicle. To study the effect of cholesterol ozonation product 5a concentration (5-50 μM) on E-selectin expression, the assay was performed in an identical fashion as described above, with each point being the mean±SEM of at least duplicate measurements.

Compound: CC(C)CCC[C@@H](C)[C@H]1CCC2C(CC=O)C([C@@]3(C)CC[C@H](O)CC3=O)CC[C@@]21C (stereo partly drawn) [4a, 3βHydroxy-5-oxo-5,6-secocholestan-6-al]
- CD36 expression (CD36; J774A.1, 25 μM compound complexed with LDL (100 μg/ml protein), 6 h): little or no effect
- CD36 expression (CD36; cultured macrophages, compound in the absence of LDL): did not increase expression of either receptor
- aldolization of 4a [1]: no aldolization
- recruitment (migration) of macrophages ([2]; 0-25 μM, 4 h, P<0.001): dose-dependent recruitment of macrophages
- migration of macrophages ([2]; compound co-incubated with BSA): macrophage migration still occurs
- migration of macrophages ([2]; compound complexed with native LDL (100 μg/ml)): no significant migration
- SR-A expression [3]: did not increase expression of either receptor
- adhesion of U-937 monocytes to endothelial cell monolayers, above that of LDL alone (U-937 monocytes cells): neither ozonolysis product 4a nor 5a, alone or in complex with LDL, nor CuOx-LDL significantly increased adhesion
- THP-1 monocyte differentiation into macrophages (adherence, morphology) (THP-1 monocytes): neither became adherent nor developed the aforementioned morphological changes
- cytotoxicity towards neuronal cell lines (neuronal cell lines): cytotoxic
- VCAM-1 levels (VCAM-1 (CD106); HAAE-1, 25 μM compound in the presence of LDL, 4 h): remain unchanged
- integrin expression (VCAM-1) (VCAM-1 (CD106); HAAE-1, not complexed with LDL): no effects
